“And” between values parts separate entries of the source, which are not always exact repeats. Equal entries are not always repeated.
System: Swiss mice, Sarcoma 180 sc, mean tumor weight T/C
Assay: NCI In Vivo Anticancer Drug Screen. Data for tumor model Sarcoma 180 (subcutaneous) in Swiss mice
Settings: endpoint: mean tumor weight, higher = larger tumour
Procedure: The antitumor activity of compounds was measured in mice bearing transplantable tumors. Survival or tumor size were measured and the results are expressed as the measurement made in the treated group (T) divided by the measurement made in the vehicle treated control group (C). The tumor model used in this assay is Sarcoma 180 (subcutaneous) in Swiss mice

[1] = dose: 300.0 mg/kg/injection, schedule: Q01DX007 (ip), vehicle: carboxymethylcellulose (CMC)

`CC1CCC2(NC1)OC1CC3C4CC=C5CC(OC6OC(CO)C(OC7OC(C)C(O)C(O)C7O)C(O)C6OC6OC(C)C(O)C(O)C6O)CCC5(C)C4CCC3(C)C1C2C` (stereo unspecified) was tested, and the T/C (dose: 150.0 mg/kg/injection, schedule: Q01DX007 (sc), vehicle: steriod suspending solution) was 115 % of control, the T/C (dose: 300.0 mg/kg/injection, schedule: Q01DX007 (sc), vehicle: steriod suspending solution) was 100 % of control and the T/C (dose: 500.0 mg/kg/injection, schedule: Q01DX007 (sc), vehicle: steriod suspending solution) was 79 % of control.
For `CN(/N=N/c1nc[nH]c1C(N)=O)c1ccccc1`, the T/C (dose: 15.5 mg/kg/injection, schedule: Q#A X014 (ip), vehicle: methylcellulose (MC)) was 89 % of control, the T/C (dose: 31.0 mg/kg/injection, schedule: Q#A X014 (ip), vehicle: methylcellulose (MC)) was 99 % of control and the T/C (dose: 62.5 mg/kg/injection, schedule: Q#A X014 (ip), vehicle: methylcellulose (MC)) was 46 % of control.
With `O=S(=O)(O)C(Nc1ccccc1)c1ccccc1` (stereo unspecified) the T/C (dose: 24.0 mg/kg/injection, schedule: Q01DX007 (ip), vehicle: carboxymethylcellulose (CMC)) was 80 % of control, the T/C (dose: 36.0 mg/kg/injection, schedule: Q01DX007 (ip), vehicle: carboxymethylcellulose (CMC)) was 94 % of control and the T/C (dose: 54.0 mg/kg/injection, schedule: Q01DX007 (ip), vehicle: carboxymethylcellulose (CMC)) was 92 % of control. The T/C (dose: 81.0 mg/kg/injection, schedule: Q01DX007 (ip), vehicle: carboxymethylcellulose (CMC)) was 93 % of control, the T/C (dose: 162.0 mg/kg/injection, schedule: Q01DX007 (ip), vehicle: carboxymethylcellulose (CMC)) was 113 % of control and the T/C (dose: 324.0 mg/kg/injection, schedule: Q01DX007 (ip), vehicle: carboxymethylcellulose (CMC)) was 84 % of control.
With `N#[N+]c1cnc([O-])[nH]c1=O` the T/C (dose: 1.0 mg/kg/injection, schedule: Q01DX007 (ip), vehicle: carboxymethylcellulose (CMC)) was 103 % of control, the T/C (dose: 2.0 mg/kg/injection, schedule: Q01DX007 (ip), vehicle: carboxymethylcellulose (CMC)) was 102 % of control and the T/C (dose: 4.0 mg/kg/injection, schedule: Q01DX007 (ip), vehicle: carboxymethylcellulose (CMC)) was 105 % of control. The T/C (dose: 8.0 mg/kg/injection, schedule: Q01DX007 (ip), vehicle: carboxymethylcellulose (CMC)) was 95 % of control.
With `CCCCN(C)N=Nc1ccc(CCCC(=O)OCC)cc1` the T/C (dose: 125.0 mg/kg/injection, schedule: Q01DX007 (ip), vehicle: saline) was 62 % of control and the T/C (dose: 200.0 mg/kg/injection, schedule: Q01DX007 (ip), vehicle: saline) was 40 % of control.
For `Brc1ccc(-c2csc(Nc3nc(-c4ccc(Br)cc4)cs3)n2)cc1`, the T/C (dose: 200.0 mg/kg/injection, schedule: Q01DX007 (ip), vehicle: carboxymethylcellulose (CMC)) was 56 % of control and 73 % of control, the T/C [1] was 52 % of control and 60 % of control and the T/C (dose: 675.0 mg/kg/injection, schedule: Q01DX007 (ip), vehicle: carboxymethylcellulose (CMC)) was 31 % of control.
`CCCCCCCCCCCCO[P+](=O)OCCCCCCCCCCCC` was tested, and the T/C (dose: 100.0 mg/kg/injection, schedule: Q01DX007 (ip), vehicle: carboxymethylcellulose (CMC)) was 111 % of control, the T/C (dose: 111.0 mg/kg/injection, schedule: Q#A X014 (ip), vehicle: carboxymethylcellulose (CMC)) was 45 % of control and the T/C (dose: 222.0 mg/kg/injection, schedule: Q01DX007 (ip), vehicle: carboxymethylcellulose (CMC)) was 47 % of control and 71 % of control. For the same compound, the T/C (dose: 250.0 mg/kg/injection, schedule: Q#A X014 (ip), vehicle: carboxymethylcellulose (CMC)) was 25 % of control, the T/C [1] was 32 % of control and the T/C (dose: 333.0 mg/kg/injection, schedule: Q01DX007 (ip), vehicle: carboxymethylcellulose (CMC)) was 63 % of control and 65 % of control. For the same compound, the T/C (dose: 375.0 mg/kg/injection, schedule: Q#A X014 (ip), vehicle: carboxymethylcellulose (CMC)) was 20 % of control, the T/C (dose: 500.0 mg/kg/injection, schedule: Q01DX007 (ip), vehicle: carboxymethylcellulose (CMC)) was 42 % of control and 50 % of control and the T/C (dose: 750.0 mg/kg/injection, schedule: Q01DX007 (ip), vehicle: carboxymethylcellulose (CMC)) was 12 % of control.
With `CC(=O)OCC(=O)[C@@]1(O)CC[C@H]2[C@@H]3CCC4=CC(=O)C=C[C@]4(C)[C@@]3(F)[C@@H](O)C[C@@]21C` the T/C (dose: 20.0 mg/kg/injection, schedule: Q#A X014 (sc), vehicle: steriod suspending solution) was 32 % of control, the T/C (dose: 30.0 mg/kg/injection, schedule: Q#A X014 (sc), vehicle: steriod suspending solution) was 32 % of control and the T/C (dose: 45.0 mg/kg/injection, schedule: Q#A X014 (sc), vehicle: steriod suspending solution) was 30 % of control. For the same compound, the T/C (dose: 67.5 mg/kg/injection, schedule: Q#A X014 (sc), vehicle: steriod suspending solution) was 24 % of control and 32 % of control.
`CC(C)Sc1nc(N)nc2c1ncn2C1OC(CO)C(O)C1O` (stereo unspecified) was tested, and the T/C (dose: 1.35 mg/kg/injection, schedule: Q#A X014 (ip), vehicle: methylcellulose (MC)) was 69 % of control, the T/C (dose: 2.05 mg/kg/injection, schedule: Q#A X014 (ip), vehicle: methylcellulose (MC)) was 95 % of control and the T/C (dose: 3.12 mg/kg/injection, schedule: Q#A X014 (ip), vehicle: methylcellulose (MC)) was 53 % of control. The T/C (dose: 4.65 mg/kg/injection, schedule: Q#A X014 (ip), vehicle: methylcellulose (MC)) was 86 % of control.
For `O=C(Nc1ccc(C2=NCCN2)cc1)c1ccc(C(=O)Nc2ccc(C3=NCCN3)cc2)c(Cl)c1`, the T/C (dose: 18.0 mg/kg/injection, schedule: Q01DX007 (ip), vehicle: carboxymethylcellulose (CMC)) was 88 % of control, the T/C (dose: 20.0 mg/kg/injection, schedule: Q01DX007 (ip), vehicle: water) was 110 % of control and the T/C (dose: 37.0 mg/kg/injection, schedule: Q01DX007 (ip), vehicle: carboxymethylcellulose (CMC)) was 96 % of control. For the same compound, the T/C (dose: 40.0 mg/kg/injection, schedule: Q01DX007 (ip), vehicle: water) was 117 % of control.
For `O=C1C=CC(=Nc2ccc3c(c2)C(Br)c2ccccc2-3)O1` (stereo unspecified), the T/C (dose: 16.5 mg/kg/injection, schedule: Q#A X014 (ip), vehicle: saline) was 57 % of control and 75 % of control, the T/C (dose: 37.5 mg/kg/injection, schedule: Q#A X014 (ip), vehicle: saline) was 100 % of control and the T/C (dose: 56.25 mg/kg/injection, schedule: Q#A X014 (ip), vehicle: saline) was 73 % of control.
For `O=c1[nH]cc(F)c(=O)[nH]1`, the T/C (dose: 3.12 mg/kg/injection, schedule: Q#A X014 (ip), vehicle: carboxymethylcellulose (CMC)) was 83 % of control, the T/C (dose: 6.25 mg/kg/injection, schedule: Q#A X014 (ip), vehicle: carboxymethylcellulose (CMC)) was 100 % of control and the T/C (dose: 6.3 mg/kg/injection, schedule: Q#A X014 (ip), vehicle: carboxymethylcellulose (CMC)) was 83 % of control. For the same compound, the T/C (dose: 9.5 mg/kg/injection, schedule: Q#A X014 (ip), vehicle: carboxymethylcellulose (CMC)) was 48 % of control, the T/C (dose: 12.5 mg/kg/injection, schedule: Q#A X014 (ip), vehicle: carboxymethylcellulose (CMC)) was 90 % of control and the T/C (dose: 12.66 mg/kg/injection, schedule: Q#A X014 (ip), vehicle: carboxymethylcellulose (CMC)) was 39 % of control. For the same compound, the T/C (dose: 15.2 mg/kg/injection, schedule: Q01DX007 (ip), vehicle: carboxymethylcellulose (CMC)) was 73 % of control and 89 % of control, the T/C (dose: 19.0 mg/kg/injection, schedule: Q#A X014 (ip), vehicle: carboxymethylcellulose (CMC)) was 2 % of control and the T/C (dose: 25.0 mg/kg/injection, schedule: Q#A X014 (ip), vehicle: carboxymethylcellulose (CMC)) was 25 % of control. For the same compound, the T/C (dose: 25.3 mg/kg/injection, schedule: Q01DX007 (ip), vehicle: carboxymethylcellulose (CMC)) was 76 % of control and the T/C (dose: 25.33 mg/kg/injection, schedule: Q01DX007 (ip), vehicle: carboxymethylcellulose (CMC)) was 53 % of control.

Source: PubChem BioAssay AID342 (DTP/NCI, 2004)
